Legend:
red blood cells = assay: Deformation of red blood cells in viscous co-flow (primaquine biomodel), diameter versus bullet metric; assay type: cell-based; conditions: red blood cells of different stiffness induced by different concentrations of primaquine; FIGS. 11A-11C
From the text: FIGS. 11A-11C illustrate bullet metric as a function of size for red blood cells treated with different concentrations of primaquine in variations of a system and method for deforming particles; and
(§1) The system 100 and/or method 200 function to enable the deformation of individual particles in a high-throughput and consistent manner, with the ability to simultaneously generate and analyze multiple data types characterizing the single particles. In one embodiment, the system 100 and/or method 200 further function to enable the generation of data that directly correlates mechanical properties of the particles with one or more fluorescence characterizations of the particles (e.g., fluorescent antibody stains, live/dead cell stains, nuclear stains, stains for apoptosis, fluorescent proteins, etc.) at the single-particle level. This can allow the generation of a direct quantitative comparison between biomolecular properties and mechanical properties. […]
(§2) Regarding Block S240, preferably, deformation metrics can be measured to characterize the deformation of the particles as the particle travels along the deformation region. […]

white blood cells = assay: Deformation of white blood cells in viscous co-flow, bullet metric as a function of treatment time; assay type: cell-based; conditions: white blood cells treated with 5 nM; compared to untreated controls; FIG. 10
Method: FIG. 10 illustrates the bullet metric as a function of treatment time for white blood cells treated with 5 nM phorbol 12-myristate as compared with a untreated control in embodiments of a system and method for deforming particles;
as §1, §2

Compound | cell morphological metric (e.g. bullet metric) (red blood cells) | change in a cell morphological metric (bullet metric) over treatment time (white blood cells)
COc1cc(NC(C)CCCN)c2ncccc2c1 (centres unmarked) [primaquine] | decrease in a cell morphological metric | –
CCCCCCCCCCCCCC(=O)O[C@@H]1[C@@H](C)[C@@]2(O)[C@@H](C=C(CO)C[C@]3(O)C(=O)C(C)=C[C@@H]23)[C@@H]2C(C)(C)[C@]12OC(C)=O | – | increased change in a cell morphological metric

— patent US10252260B2, “System and method for deforming particles” (CytoVale Inc., priority 2016, dated 2019)
